Assay results taken from ChEMBL document CHEMBL1157806, “1-(3-Deoxy-3-fluoro-beta-d-glucopyranosyl) pyrimidine derivatives as inhibitors of glycogen phosphorylase b: Kinetic, crystallographic and modelling studies” (Bioorg Med Chem, 2010).

What was measured:
[1] = target: T1, Glycogen phosphorylase, muscle form (Oryctolagus cuniculus, UniProt P00489); assay: Inhibition of rabbit muscle glycogen phosphorylase inactive form b
T1 sequence (P00489 whole entry): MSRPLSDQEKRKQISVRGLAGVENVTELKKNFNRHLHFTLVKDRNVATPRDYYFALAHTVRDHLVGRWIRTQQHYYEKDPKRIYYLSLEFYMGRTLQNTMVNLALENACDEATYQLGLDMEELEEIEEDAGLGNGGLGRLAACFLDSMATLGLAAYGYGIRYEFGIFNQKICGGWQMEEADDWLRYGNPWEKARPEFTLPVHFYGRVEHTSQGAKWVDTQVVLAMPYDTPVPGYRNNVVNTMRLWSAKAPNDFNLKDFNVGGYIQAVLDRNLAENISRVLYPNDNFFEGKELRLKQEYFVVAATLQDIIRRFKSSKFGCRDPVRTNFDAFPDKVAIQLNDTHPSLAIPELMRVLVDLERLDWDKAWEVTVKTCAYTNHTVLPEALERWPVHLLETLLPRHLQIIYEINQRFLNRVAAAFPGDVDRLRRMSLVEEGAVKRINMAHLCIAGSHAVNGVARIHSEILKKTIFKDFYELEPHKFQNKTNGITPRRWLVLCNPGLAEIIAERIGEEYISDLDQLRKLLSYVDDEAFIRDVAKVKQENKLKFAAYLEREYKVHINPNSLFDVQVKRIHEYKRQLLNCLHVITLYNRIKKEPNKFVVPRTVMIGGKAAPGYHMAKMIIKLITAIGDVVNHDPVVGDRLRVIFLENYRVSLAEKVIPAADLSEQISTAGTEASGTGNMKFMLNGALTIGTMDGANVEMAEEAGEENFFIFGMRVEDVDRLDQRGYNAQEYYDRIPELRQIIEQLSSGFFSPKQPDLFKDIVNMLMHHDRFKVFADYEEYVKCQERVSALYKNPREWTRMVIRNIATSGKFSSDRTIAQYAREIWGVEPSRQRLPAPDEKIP

[2] = Dissociation constant, pKa of the compound; assay type: physicochemical

| Ki [1] | pKa [2] | Compound |
| --- | --- | --- |
| 6.1 µM |  | O=c1ccn([C@@H]2O[C@H](CO)[C@@H](O)[C@H](O)[C@H]2O)c(=O)[nH]1 |
|  | 7.5 | O=c1[nH]c(=O)n([C@@H]2O[C@H](CO)C(O)[C@H](F)C2O)cc1F (stereo partly drawn) |
| 7.7 µM |  | Nc1ccn([C@@H]2O[C@H](CO)[C@@H](O)[C@H](O)[C@H]2O)c(=O)n1 |
